Test results published in patent US20200031771A1, “SUBSTITUTED PHENYLPROPIONIC ACID ENANTIOMER AND MANUFACTURING METHOD, COMPOSITION, AND APPLICATION OF SAME” (SHENZHEN CHIPSCREEN BIOSCIENCES CO., LTD., priority 2016, published 2020).

Key:
human PPARα = biological target: T1, human PPARα (Homo sapiens, UniProt Q07869); test: PPARα in vitro reporter gene assay (PPRE-luciferase) in L-02 cells; format: cell-based; settings: 24 h after compound addition, luciferase corrected by GFP, read-out: EC50 (semi-activating activity) activating PPARα
T1 construct: expressed in transfected cells; host or cells: L-02
T1 sequence (Q07869 1-468): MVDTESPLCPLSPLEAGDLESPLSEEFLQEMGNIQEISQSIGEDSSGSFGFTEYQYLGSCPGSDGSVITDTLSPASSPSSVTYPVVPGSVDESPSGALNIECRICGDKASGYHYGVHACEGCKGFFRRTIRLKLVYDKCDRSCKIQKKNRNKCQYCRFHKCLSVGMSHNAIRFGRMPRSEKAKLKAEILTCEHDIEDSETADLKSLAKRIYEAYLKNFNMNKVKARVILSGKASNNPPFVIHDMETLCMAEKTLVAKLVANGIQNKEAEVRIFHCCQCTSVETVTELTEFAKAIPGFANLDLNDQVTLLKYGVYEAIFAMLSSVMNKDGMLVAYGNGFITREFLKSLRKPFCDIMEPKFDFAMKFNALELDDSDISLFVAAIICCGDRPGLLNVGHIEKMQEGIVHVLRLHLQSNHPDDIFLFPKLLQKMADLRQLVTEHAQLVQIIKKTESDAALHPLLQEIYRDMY
Procedure: The PPARα reporter gene detection system comprises a pCDNA3.1 luciferase expression plasmid (PPRE enhancer element was inserted into the upstream of the promoter), a green fluorescent protein GFP expression plasmid, and a human PPARα expression plasmid.
(§1) The above plasmids were co-transfected (Fugene 6.0 transfection reagent) into human hepatoma cell line L-02. 48 hours after transfection, different concentrations of test compounds were added. 24 hours after administration, the cells were treated with a luciferase assay kit (Promega E1910) and the fluorescence intensity of GFP (wavelength 485-527 nm) and luciferase substrate (wavelength 562 nm) were detected using a fluorescence detector (Fluoroskan Ascent FL) respectively. The GFP signal was used as an internal reference to correct the detected luciferase substrate signal, and a relative reporter activation intensity was obtained by comparing the above corrected signal to the blank control (without treatment of the compounds). The semi-activating activity (EC50) of the test compound was calculated from concentration gradient data.

db/db mice [1] = test: Glucose tolerance test (OTGG) in db/db mice after 14 days of administration; format: in vivo, mouse; settings: n = 10; for Blood glucose in glucose tolerance test, average value, 15 min: 15 min after oral 2 g/kg glucose; for Blood glucose in glucose tolerance test, average value, 30 min: 30 min after oral 2 g/kg glucose; for Blood glucose in glucose tolerance test, average value, 60 min: 60 min after oral 2 g/kg glucose; for Blood glucose in glucose tolerance test, average value, 120 min: 120 min after oral 2 g/kg glucose; for Glucose tolerance test AUC, average value: oral 2 g/kg glucose, 0-120 min; for Blood glucose in glucose tolerance test, average value, 0 min: overnight fast, before oral 2 g/kg glucose (0 min)
Procedure: (§2) The route of administration was oral, the dose was 20 mg/kg in the administration group and 5 mg/kg in the control group, the frequency of administration was once a day, and the administration period was 14 days. […] On days 0, 3, 6, 9, 12, and 14, after fasting for 6 hours after administration, blood was collected from the tail vein and fasting blood glucose levels was measured by a blood glucose meter and recorded.
After 14 days of administration, the animals were fasted overnight (<10 hours), and orally given 2 g/kg of glucose on the next day. Blood was collected from the tail vein at the 0 (pre-administration or fasting blood glucose level), 15, 30, 60 and 120 minutes after administration, respectively, and blood glucose levels were then measured by blood glucose meter and recorded.

db/db mice [2] = test: Fasting blood glucose in db/db mice during 14 days of oral administration; format: in vivo, mouse; settings: oral once a day, enantiomers 20 mg/kg, rosiglitazone 5 mg/kg, 6 h fasting; for Fasting blood glucose, average value, Day 0: Day 0, n = 10; for Fasting blood glucose, average value, Day 3: Day 3, n = 10; for Fasting blood glucose, average value, Day 6: Day 6, n = 10; for Fasting blood glucose, average value, Day 9: Day 9, n = 10; for Fasting blood glucose, average value, Day 12: Day 12, n = 10; for Fasting blood glucose, average value, Day 14: Day 14, n = 10
Procedure: as §2

RXR/PPARγ heterodimer = biological target: T2, RXR/PPARγ heterodimer (Homo sapiens, UniProt P37231); test: PPARγ in vitro reporter gene assay (pACOX reporter, PPARγ and RXR plasmids) in L-02 cells; format: cell-based; settings: 24 h after compound addition, luciferase corrected by GFP, read-out: EC50 (semi-activating activity) activating PPARγ
T2 construct: expressed in transfected cells; host or cells: L-02
T2 sequence (P37231 1-505): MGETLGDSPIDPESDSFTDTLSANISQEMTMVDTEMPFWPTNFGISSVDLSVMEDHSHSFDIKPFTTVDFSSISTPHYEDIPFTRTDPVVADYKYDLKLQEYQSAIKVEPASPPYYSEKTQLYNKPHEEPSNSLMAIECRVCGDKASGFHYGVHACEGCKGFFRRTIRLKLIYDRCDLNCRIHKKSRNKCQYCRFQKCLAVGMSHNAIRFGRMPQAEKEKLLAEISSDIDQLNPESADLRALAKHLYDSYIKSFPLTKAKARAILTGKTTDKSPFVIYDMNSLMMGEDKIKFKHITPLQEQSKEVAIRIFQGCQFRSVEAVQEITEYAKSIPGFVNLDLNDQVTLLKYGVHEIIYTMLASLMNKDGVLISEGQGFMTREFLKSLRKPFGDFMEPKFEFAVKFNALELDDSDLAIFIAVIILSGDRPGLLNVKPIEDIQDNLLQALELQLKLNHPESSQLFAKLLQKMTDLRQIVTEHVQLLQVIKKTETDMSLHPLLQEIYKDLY
T2 sequence (P19793 1-462 partner): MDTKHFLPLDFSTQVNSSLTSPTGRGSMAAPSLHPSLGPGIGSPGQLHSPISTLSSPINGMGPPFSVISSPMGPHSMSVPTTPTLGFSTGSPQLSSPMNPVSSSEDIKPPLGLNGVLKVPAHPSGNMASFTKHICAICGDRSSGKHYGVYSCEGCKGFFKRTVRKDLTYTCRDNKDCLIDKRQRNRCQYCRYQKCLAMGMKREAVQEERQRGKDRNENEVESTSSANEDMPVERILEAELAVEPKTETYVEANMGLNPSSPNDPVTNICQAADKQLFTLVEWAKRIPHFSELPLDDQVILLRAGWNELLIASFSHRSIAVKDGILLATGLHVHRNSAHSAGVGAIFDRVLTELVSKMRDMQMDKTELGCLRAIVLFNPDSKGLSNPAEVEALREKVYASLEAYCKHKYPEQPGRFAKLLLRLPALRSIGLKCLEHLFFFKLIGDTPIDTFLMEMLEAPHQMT
Procedure: The PPARγ reporter gene detection system comprises a pACOX fluorescent reporter gene plasmid (the promoter comprises PPRE sequence), PPARγ expression plasmid, RXR expression plasmid, and a green fluorescent protein GFP expression plasmid.
as §1, with “FL),” for “FL)”

[3] = biological target: T3, RXR/PPAR-6 heterodimer (PPARδ) (Homo sapiens, UniProt Q03181); test: PPARδ in vitro reporter gene assay (pGL3-PPRE reporter, PPARδ and RXR plasmids) in L-02 cells; format: cell-based; settings: 24 h after compound addition, luciferase corrected by GFP, read-out: EC50 (semi-activating activity) activating PPAR-6
T3 construct: expressed in transfected cells; host or cells: L-02
T3 sequence (Q03181 1-441): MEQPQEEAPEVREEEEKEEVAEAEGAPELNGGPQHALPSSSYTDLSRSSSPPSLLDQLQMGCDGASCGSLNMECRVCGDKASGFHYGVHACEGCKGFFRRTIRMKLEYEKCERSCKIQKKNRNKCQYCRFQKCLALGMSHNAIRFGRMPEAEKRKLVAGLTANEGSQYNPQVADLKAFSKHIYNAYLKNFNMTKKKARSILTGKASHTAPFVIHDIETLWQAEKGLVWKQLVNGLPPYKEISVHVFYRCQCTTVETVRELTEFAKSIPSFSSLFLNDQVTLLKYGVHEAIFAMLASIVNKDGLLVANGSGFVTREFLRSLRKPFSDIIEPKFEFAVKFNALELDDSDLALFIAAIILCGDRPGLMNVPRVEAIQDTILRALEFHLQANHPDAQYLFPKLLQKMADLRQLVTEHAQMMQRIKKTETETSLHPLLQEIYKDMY
T3 sequence (P19793 1-462 partner): T2 sequence (P19793 1-462 partner)
Procedure: The PPARδ reporter gene detection system comprises a pGL3-PPRE fluorescent reporter gene plasmid (PPRE enhancer element was inserted into the upstream of the promoter), PPARδ expression plasmid, RXR expression plasmid, and a green fluorescent protein GFP expression plasmid.
as §1, with “Ascent FL),” for “Ascent FL)”, “signal is” for “signal was”

Row | SMILES | EC50 (human PPARα) [µM] | Blood glucose in glucose tolerance test, average value, 15 min (db/db mice [1]) | Blood glucose in glucose tolerance test, average value, 30 min (db/db mice [1]) | Blood glucose in glucose tolerance test, average value, 60 min (db/db mice [1]) | Blood glucose in glucose tolerance test, average value, 120 min (db/db mice [1]) | Glucose tolerance test AUC, average value (db/db mice [1]) | Blood glucose in glucose tolerance test, average value, 0 min (db/db mice [1]) | Fasting blood glucose, average value, Day 0 (db/db mice [2]) | Fasting blood glucose, average value, Day 3 (db/db mice [2]) | Fasting blood glucose, average value, Day 6 (db/db mice [2]) | Fasting blood glucose, average value, Day 9 (db/db mice [2]) | Fasting blood glucose, average value, Day 12 (db/db mice [2]) | Fasting blood glucose, average value, Day 14 (db/db mice [2]) | EC50 (RXR/PPARγ heterodimer) [nM] | EC50 [3] [nM]
1 | O=C(c1ccc(F)cc1)c1ccccc1NC(Cc1ccc(OCCn2c3ccccc3c3ccccc32)cc1)C(=O)O (single isomer, unassigned; (+)) [Enantiomer 2, (+)-2-[(2-(4-fluorobenzoyl)phenyl)amino]-3-[(4-(2-carbazole-ethoxy)phenyl)]propionic acid] | 5.38 | 31.87 | 33.3 | 30.94 | 25.75 | 59.16 | 17.18 | 18.86 | 23.99 | 20.03 | 26.01 | 26.44 | 17.18 | 2710 | > 10000
2 | O=C(c1ccc(F)cc1)c1ccccc1NC(Cc1ccc(OCCn2c3ccccc3c3ccccc32)cc1)C(=O)O (single isomer, unassigned; (-)) [Enantiomer 1, (−)-2-[(2-(4-fluorobenzoyl)phenyl)amino]-3-[(4-(2-carbazole-ethoxy)phenyl)]propionic acid] | 1.14 | 28.02 | 32.26 | 26.6 | 14.69 | 47.77 | 10.98 | 18.43 | 18.2 | 14.7 | 18.14 | 16.18 | 10.98 | 76 | 1930
3 | CN(CCOc1ccc(CC2SC(=O)NC2=O)cc1)c1ccccn1 (centres unmarked) [rosiglitazone, reference compound] |  | 28.11 | 31.22 | 25.08 | 13.61 |  | 11.29 | 19.09 | 13.58 | 13.8 | 15.05 | 14.44 | 11.29 |  | 
